{
  "source": "ChEMBL document CHEMBL1149790",
  "about": "“Synthesis of some novel thiourea derivatives obtained from 5-[(4-aminophenoxy)methyl]-4-alkyl/aryl-2,4-dihydro-3H-1,2,4-triazole-3-thiones and evaluation as antiviral/anti-HIV and anti-tuberculosis agents” (Eur J Med Chem, 2008)",
  "system": "Mycobacterium tuberculosis",
  "assay": "Antitubercular activity against Mycobacterium bovis BCG",
  "assay_type": "functional",
  "conditions": "variant bovis BCG",
  "data": [
    {"smiles": "CC(C)CCOc1ccc(NC(=S)Nc2ccc(OCCC(C)C)cc2)cc1", "note": "[TIOCARLIDE]", "values": [
      {"measurement": "MIC", "result": 0.5, "unit": "µg/mL"}
    ]}
  ]
}
